Source: patent US20110059983A1, “USE OF SUBSTITUTED OXINDOLE DERIVATIVES FOR THE TREATMENT AND PROPHYLAXIS OF PAIN” (Abbott GmbH & Co. KG, priority 2009, published 2011)

Tested on: Chung model (spinal nerve ligation rats)
Test: Tactile allodynia test after spinal nerve ligation (SNL, Chung model)
Assay type: in vivo, rat
Conditions: 3, 10 and 30 mg/kg po in saline, administered 1 hour prior to the tactile allodynic test
Excerpt: SNL surgery: For spinal nerve ligation surgery, rats were anesthetized with isoflurane gas. […] The hair at the surgical site was clipped and disinfected with alcohol and betadine. Body temperature was maintained during surgery by using a heating pad. A skin incision (approximately 3 cm) was made on the dorsal midline, using the level of the iliac crests as the midpoint of the incision. At the mid-sacral region, on the left side of the vertebral column (in the sagittal plane), a #15 scalpel blade was used to cut the muscles close to the vertebral body until the blade hits the sacrum bone. A retractor system was used to expose the area from the sacro-iliac rim to about 2 cm of the lateral vertebral column. Using rongeurs, the facet joint was removed followed by the L6 transverse process. A glass hook was used to isolate and tightly ligate L5 and L6 with 6-0 silk suture. The muscle was then sutured using 4-0 silk suture. The skin was closed using wound clips.
Tactile allodynia test: The rats were placed on testing stands with screens under their feet. von Frey filaments eliciting various forces (up to 15 g) were applied to the paws, starting with a filament of 4.31 g and proceeding with alternating lighter and heavier filaments. The measured variable is the 50% withdrawal threshold (PWT) and is calculated from the up-down formula in Chaplan et al. 1994.

CCOc1ncccc1C1(NC(=O)N2CCN(C3CCN(C)CC3)CC2)C(=O)N(S(=O)(=O)c2ccc(OC)cc2OC)c2ccc(Cl)cc21 (stereo not shown) [compound 1]
50% paw withdrawal threshold (PWT): dose-dependently increased the withdrawal threshold
